# Patent publication US20230250070A1, “DIHYDROOXAZOLE AND THIOUREA DERIVATIVES MODULATING THE NLRP3 INFLAMMASOME PATHWAY” (AC IMMUNE SA, priority 2020, published 2023)
# Tested on: NLRP3 inflammasome pathway
# Assay: NLRP3 inflammasome pathway activation assay, MSU stimulation, IL-1β release (AlphaLISA)
# Type: cell-based
# Settings: PMA-differentiated, LPS-primed human monocyte-like cells, MSU 150 µg/ml for 3 h
# Experimental: The following assays were used to determine the inhibitory activity of test compounds on the NLRP3 inflammasome pathway using common stimuli Nigericin (Invivogen) or monosodium urate crystals (MSU) (Invivogen).
# Human monocyte-like cells were cultured in RPMI-1640 Glutamax medium supplemented with 10% heat inactivated FCS and 50 U/ml penicillin-streptomycin (Life Technologies).
# Human monocyte-like cells were seeded at 75000 per well in a 96-well plate and were differentiated overnight into macrophages with 10 ng/ml PMA (Phorbol Myristate Acetate). The following day, medium containing 10 ng/ml LPS (Lipopolysaccharide) were added. After 3 hours of LPS priming, concentrations of test compound in the range from 100 µM to 6 nM were added 30 min prior to NLRP3 inflammasome pathway stimulation with Nigericin 3.75 µM or MSU 150 µg/ml for 3 h.
# For IL-1β quantification, supernatants were analyzed using AlphaLISA kits according to the manufacturer’s instructions (Perkin Elmer AlphaLISA AL220F). Briefly, in a 384-well OptiPlate™ microplate, 5 µl of sample was mixed, with 20 µl of AlphaLISA Anti-Analyte Acceptor beads (10 µg/mL final) and Biotinylated Antibody Anti-Analyte (1 nM final). Then, incubated 60 minutes at RT, then 25 µL of 2X SA-Donor beads (40 µg/mL final) were added and incubated 30 minutes at RT in the dark. Reading was done using an EnVision-Alpha Reader (PerkinElmer).
# IC50(concentration corresponding to 50% inhibition) were determined using GraphPad Prism 8.
row,Structure (SMILES),IC50 [nM]
1,"CCCCOC(=O)C1(c2cc(C(C)(C)O)on2)CN=C(Nc2c3c(cc4c2CCC4)CCC3)O1 (racemic) [Example 76, butyl 2-((1,2,3,5,6,7-hexahydro-s-indacen-4-yl)amino)-5-(5-(2-hydroxypropan-2-yl)isoxazol-3-yl)-4,5-dihydrooxazole-5-carboxylate]",< 1000
2,"CCOC(=O)C1(c2cnccn2)CN=C(Nc2c3c(cc4c2CCC4)CCC3)O1 (racemic) [Example 49, ethyl 2-((1,2,3,5,6,7-hexahydro-s-indacen-4-yl)amino)-5-(pyrazin-2-yl)-4,5-dihydrooxazole-5-carboxylate]",< 1000
3,"O=C(OC1CCCC1)C1(c2ccon2)CN=C(Nc2c3c(cc4c2CCC4)CCC3)O1 (centres unmarked) [Example 57, Cyclopentyl 2-((1,2,3,5,6,7-hexahvdro-s-indacen-4-vl)amino)-5-(isoxazol-3-vl)-4,5-dihvdrooxazole-5-carboxylate]",< 1000
4,"CCOC(=O)C1(c2cccs2)CN=C(Nc2c3c(cc4c2CCC4)CCC3)O1 (racemic) [Example 34, ethyl 2-((1,2,3,5,6,7-hexahydro-s-indacen-4-yl)amino)-5-(thiophen-2-yl)-4,5-dihydrooxazole-5-carboxylate]",1000 to 10000
5,"CCCCCOC(=O)C1(c2ccno2)CN=C(Nc2c3c(cc4c2CCC4)CCC3)O1 (racemic) [Example 92, pentyl 2-((1,2,3,5,6,7-hexahydro-s-indacen-4-yl)amino)-5-(isoxazol-5-yl)-4,5-dihydrooxazole-5-carboxylate]",< 1000
6,"CCOC(=O)C1(c2ccon2)CN=C(Nc2c3c(cc4c2CCC4)CCC3)O1 (racemic) [Example 21B, ethyl 2-((1,2,3,5,6,7-hexahydro-s-indacen-4-yl)amino)-5-(isoxazol-3-yl)-4,5-dihydrooxazole-5-carboxylate]",< 1000
7,"CC(C)c1cc(C2(C(=O)O)CN=C(Nc3c4c(cc5c3CCC5)CCC4)O2)no1 (racemic) [Example 27, 2-((1,2,3,5,6,7-hexahydro-s-indacen-4-yl)amino)-5-(5-isopropylisoxazol-3-yl)-4,5-dihydrooxazole-5-carboxylate]",1000 to 10000
8,"CC(C)(O)c1cc(C2(C(=O)OC3CCCC3)CN=C(Nc3c4c(cc5c3CCC5)CCC4)O2)no1 (racemic) [Example 19, cyclopentyl 2-((1,2,3,5,6,7-hexahydro-s-indacen-4-yl)amino)-5-(5-(2-hydroxypropan-2-yl)isoxazol-3-yl)-4,5-dihydrooxazole-5-carboxylate]",< 1000
9,"CCOC(=O)C1(c2cc(C(C)(C)O)on2)OC(Nc2c3c(cc4c2CCC4)CCC3)=NC1CC (centres unmarked) [Example 51, ethyl 4-ethyl-2-((1,2,3,5,6,7-hexahydro-s-indacen-4-yl)amino)-5-(5-(2-hydroxypropan-2-yl)isoxazol-3-yl)-4,5-dihydrooxazole-5-carboxylate]",1000 to 10000
10,"CCCOC(=O)C1(c2cc(C(C)(C)O)on2)CN=C(Nc2c3c(cc4c2CCC4)CCC3)O1 (racemic) [Example 74, propyl 2-((1,2,3,5,6,7-hexahydro-s-indacen-4-yl)amino)-5-(5-(2-hydroxypropan-2-yl)isoxazol-3-yl)-4,5-dihydrooxazole-5-carboxylate]",< 1000
11,"CCOC(=O)C1(c2ccco2)CN=C(Nc2c3c(cc4c2CCC4)CCC3)O1 (racemic) [Example 36, ethyl 5-(furan-2-yl)-2-((1,2,3,5,6,7-hexahydro-s-indacen-4-yl)amino)-4,5-dihydrooxazole-5-carboxylate]",1000 to 10000
12,"COC(=O)C1(c2ccno2)CN=C(Nc2c3c(cc4c2CCC4)CCC3)O1 (racemic) [Example 87, methyl 2-((1,2,3,5,6,7-hexahydro-s-indacen-4-yl)amino)-5-(isoxazol-5-yl)-4,5-dihydrooxazole-5-carboxylate]",< 1000
13,"COC(=O)C1(c2ccon2)CN=C(Nc2c3c(cc4c2CCC4)CCC3)O1 (racemic) [Example 84, methyl 2-((1,2,3,5,6,7-hexahydro-s-indacen-4-yl)amino)-5-(isoxazol-3-yl)-4,5-dihydrooxazole-5-carboxylate]",< 1000
14,"CCOC(=O)C1(c2nccs2)CN=C(Nc2c3c(cc4c2CCC4)CCC3)O1 (single isomer, unassigned) [Example 21, ethyl 2-((1,2,3,5,6,7-hexahydro-s-indacen-4-yl)amino)-5-(thiazol-2-yl)-4,5-dihydrooxazole-5-carboxylate]",< 1000
15,"CCOC(=O)C1(c2cnc(OC)nc2)CN=C(Nc2c3c(cc4c2CCC4)CCC3)O1 (racemic) [Example 32, ethyl 2-((1,2,3,5,6,7-hexahydro-s-indacen-4-yl)amino)-5-(2-methoxypyrimidin-5-yl)-4,5-dihydrooxazole-5-carboxylate]",< 1000
16,"COC(=O)C1(c2cc(C(C)(C)O)on2)CN=C(Nc2c3c(cc4c2CCC4)CCC3)O1 (single isomer, unassigned) [Example 72, methyl 2-((1,2,3,5,6,7-hexahydro-s-indacen-4-yl)amino)-5-(5-(2-hydroxypropan-2-yl)isoxazol-3-yl)-4,5-dihydrooxazole-5-carboxylate]",< 1000
17,"CCOC(=O)C1(c2ccns2)CN=C(Nc2c3c(cc4c2CCC4)CCC3)O1 (single isomer, unassigned) [Example 43, ethyl 2-((1,2,3,5,6,7-hexahydro-s-indacen-4-yl)amino)-5-(isothiazol-5-yl)-4,5-dihydrooxazole-5-carboxylate]",< 1000
18,"CCOC(=O)C1(C2CCCO2)CN=C(Nc2c3c(cc4c2CCC4)CCC3)O1 (racemic) [Example 40, ethyl 2-((1,2,3,5,6,7-hexahydro-s-indacen-4-yl)amino)-5-(tetrahydrofuran-2-yl)-4,5-dihydrooxazole-5-carboxylate]",< 1000
19,"CCOC(=O)C1(c2cc(C(C)C)on2)CN=C(Nc2c3c(cc4c2CCC4)CCC3)O1 (racemic) [Example 21A, ethyl 2-((1,2,3,5,6,7-hexahydro-s-indacen-4-yl)amino)-5-(5-isopropylisoxazol-3-yl)-4,5-dihydrooxazole-5-carboxylate]",< 1000
20,"O=C(O)C1(c2ccccn2)CN=C(Nc2c3c(cc4c2CCC4)CCC3)O1 (centres unmarked) [Example 25, 2-((1,2,3,5,6,7-hexahydro-s-indacen-4-yl)amino)-5-(pyridin-2-yl)-4,5-dihydrooxazole-5-carboxylic acid]",1000 to 10000
21,"CCCCOC(=O)C1(c2nccs2)CN=C(Nc2c3c(cc4c2CCC4)CCC3)O1 (racemic) [Example 67, butyl 2-((1,2,3,5,6,7-hexahydro-s-indacen-4-yl)amino)-5-(thiazol-2-yl)-4,5-dihydrooxazole-5-carboxylate]",< 1000
22,"CCOC(=O)C1(c2ccno2)CN=C(Nc2c3c(cc4c2CCC4)CCC3)O1 (racemic) [Example 44, ethyl 2-((1,2,3,5,6,7-hexahydro-s-indacen-4-yl)amino)-5-(isoxazol-5-yl)-4,5-dihydrooxazole-5-carboxylate]",< 1000
23,"O=C(O)C1(c2cccnc2)CN=C(Nc2c3c(cc4c2CCC4)CCC3)O1 (centres unmarked) [Example 26, 2-((1,2,3,5,6,7-hexahydro-s-indacen-4-yl)amino)-5-(pyridin-3-yl)-4,5-dihydrooxazole-5-carboxylic acid]",1000 to 10000
24,"CC(C)(C)OC(=O)C1(c2ccon2)CN=C(Nc2c3c(cc4c2CCC4)CCC3)O1 (racemic) [Example 60, tert-butyl 2-((1,2,3,5,6,7-hexahydro-s-indacen-4-yl)amino)-5-(isoxazol-3-yl)-4,5-dihydrooxazole-5-carboxylate]",< 1000
25,"CC(C)(C)OC(=O)C1(c2cc(C(C)(C)O)on2)CN=C(Nc2c3c(cc4c2CCC4)CCC3)O1 (racemic) [Example 82, tert-butyl 2-((1,2,3,5,6,7-hexahydro-s-indacen-4-yl)amino)-5-(5-(2-hydroxypropan-2-yl)isoxazol-3-yl)-4,5-dihydrooxazole-5-carboxylate]",< 1000
26,"CCOC(=O)C1(c2ccn(C(C)C)n2)CN=C(Nc2c3c(cc4c2CCC4)CCC3)O1 (racemic) [Example 54, ethyl 2-((1,2,3,5,6,7-hexahydro-s-indacen-4-yl)amino)-5-(1-isopropyl-1 H-pyrazol-3-yl)-4,5-dihydrooxazole-5-carboxylate]",< 1000
27,"CCCOC(=O)C1(c2nccs2)CN=C(Nc2c3c(cc4c2CCC4)CCC3)O1 (racemic) [Example 65, propyl 2-((1,2,3,5,6,7-hexahydro-s-indacen-4-yl)amino)-5-(thiazol-2-yl)-4,5-dihydrooxazole-5-carboxylate]",< 1000
28,"CCOC(=O)C1(c2nccn2C)CN=C(Nc2c3c(c(F)c4c2CCC4)CCC3)O1 (racemic) [Example 37, ethyl 2-((8-fluoro-1,2,3,5,6,7-hexahydro-s-indacen-4-yl)amino)-5-(1-methyl-1H-imidazol-2-yl)-4,5-dihydrooxazole-5-carboxylate]",< 1000
29,"COC(=O)C1(c2nccs2)CN=C(Nc2c3c(cc4c2CCC4)CCC3)O1 (racemic) [Example 62, methyl 2-((1,2,3,5,6,7-hexahydro-s-indacen-4-yl)amino)-5-(thiazol-2-yl)-4,5-dihydrooxazole-5-carboxylate]",< 1000
